Data set [1] has as its target T1, CCR5 (Homo sapiens (Human), UniProt P51681). The experiment in a line: Calcium mobilization assay, CCR5-MOR CHO co-expressed cell line (Gqi5), RANTES-stimulated. The format is cell-based. As to conditions: cells stimulated with RANTES. Here is the method:
(§1) Having a cell line that consistently expresses both CCR5 and MOR was essential for studying how the two receptors interact with each other using calcium mobilization assays and cell fusion assays. A previously established MOR Chinese hamster ovarian (CHO) cell line was transfected with a plasmid containing CCR5 tagged with a yellow fluorescent protein on its N-terminus (CCR5-YFP). ^1 After 48 hours cells were sorted based upon the presence of the yellow fluorescent protein tag using a flow cytometer. Cells containing the tagged receptors were then cultured and used in the subsequent assays.
(§2) Calcium mobilization is directly related to G protein-coupled receptor (GPCR) activation and therefore is a useful technique to study the functional activity of new ligands.

The test system of data set [2] is human astrocytes. The experiment in a line: Cytotoxicity assay, AOPI live/dead labeling of human astrocytes. The format is cell-based. Here is the method: Cell viability was assessed by measurement of both live and dead cells using dual (green/red) fluorescence labeling with AOPI analyzed with Cellometer Vision CBA (Nexcelom Bioscience LLC).
To determine whether HIV-1±morphine exposure affected astrocyte viability in the presence or absence of MVC or the bivalent compound, a cell death assay was performed at 24 h after treatment.

For data set [3], the target named is T1, CCR5. In words: RANTES-stimulated Ca2+ flux assay in Gqi5 transfected CCR5-MOLT-4 cells (Example 4). The data set is classed as cell-based.
Data set [4] has as its system fusion of CCR5-MOR CHO target cells (CD4) with HEK effector cells (HIV-1 gp140). The data set is classed as cell-based.
For data set [5], the system named is IL-6. The experiment in a line: Cytokine release ELISA, HIV-1 infected astroglia supernatant: IL-6. As to conditions: 18-20 h; bivalent ligand ± morphine. The data set is classed as cell-based, human. Here is the method:
The protein levels of the cytokines TNF-α, IL-6, IL-1β and the chemokine RANTES were measured by ELISA (Quantikine kits; R&D Systems Minneapolis, Minn.).
After 18-20 h exposure, supernatant was removed and analyzed by ELISA to quantitatively analyze the release of the cytokines TNF-α, IL-1β and IL-6 and the chemokine RANTES.
Background: An ELISA detects its analyte on a solid surface through an enzyme-linked reagent.

The target in data set [6] is T2, MOR (Homo sapiens (Human), UniProt P35372). In words: DAMGO-stimulated Ca2+ flux assay in hMOR-CHO cells transfected with Gqi5. The data set is classed as cell-based.
The target in data set [7] is mu opioid receptor (MOR) (Homo sapiens (Human), UniProt P35372). In words: MOR competitive radioligand binding, [3H]naloxone, hMOR-expressed CHO cells. The following applies: Example 1, read-out: binding affinity to the mu opioid receptor, Ki. Here is the method:
(§3) MOR/CHO cell culture and membrane homogenate preparation followed literature report^52.
Saturation binding was performed by incubating membranes for 90 minutes at 30° C. with 0.5-15 nM [^3H]naloxone in assay buffer in a 0.5 mL volume. […] The reaction was terminated by rapid filtration through Whatman GF/B glass fiber filters, followed by 3 washes with 3 mL ice-cold Tris buffer. Bound radioactivity will be determined by liquid scintillation spectrophotometry at 45% efficiency for [^3H].
(§4) For competition binding assay (agonists or antagonists), Hill plots linear regression analysis and the Cheng-Prusoff equation were applied to determine the IC50 and Ki values. In [^35S]GTPγS binding assays, agonist concentration effect curves were fit by non-linear regression to obtain Emax and EC50 values; antagonist inhibition of agonist-stimulated [^35S]GTPγS binding was analyzed by Hill analysis and AD50 values were corrected to Ki values using the Cheng-Prusoff equation. All analyses were using Prism 4.0.
Herein is reported the characterization of this novel molecular probe in for its binding affinity, Ca^2+ flux functional activity, and HIV-1 inhibition potency.

Data set [8] relates to R5-tropic HIV-1Bal Vpr-GFP in primary astroglial cells. In words: Confocal microscopy of HIV-1Bal Vpr-GFP entry into astroglial cells. The data set is classed as cell-based. The following applies: 100 nM, 18 to 20 h. Here is the method:
For direct visualization of viral entry, fluorescent HIV-1 particles were generated by co-transfection of a vector containing a full-length R5-tropic HIV-1 provirus (NIH AIDS Research & Reference Reagent Program, Division of AIDS, NIAID, NIH: pWT/BaL (catalog #11414) and Vpr-GFP into HEK-293T cells as described in [9]. Primary astroglial cells were infected with the HIV-1 Vpr-GFP particles in the absence or presence of 100 nM bivalent ligand for 18 to 20 h at 37° C., washed in PBS, fixed with 4% paraformaldehyde, and counterstained with DAPI. Cells were imaged using a Zeiss LSM 700 laser scanning confocal microscope equipped with a 63×(1.42 numerical aperture [NA]) objective, using 488-nm laser excitation with dichroic beam-splitter set at 492 nm to optimize GFP detection.

The target in data set [9] is T2, MOR. The experiment in a line: Calcium mobilization assay, CCR5-MOR CHO co-expressed cell line (Gqi5), DAMGO-stimulated. The format is cell-based. On the procedure:
as §1, §2

The target in data set [10] is CCR5 (Macaca mulatta (Rhesus macaque), UniProt P61813). The experiment in a line: CCR5 competitive radioligand binding, [125I]MIP-1α, Chem-1 cell membrane preparations. The following applies: mean of three experiments, read-out: Radioligand binding Ki ± SEM. Here is the method:
Afterwards, the pharmacological profile of bivalent ligand 1 at the chemokine receptor CCR5 was characterized similarly. The competitive radioligand binding assay was conducted in CCR5 rhesus macaque membrane preparations from Chem-1 cells.

For data set [11], the target named is mu opioid receptor (Homo sapiens (Human), UniProt P35372). The experiment in a line: biochemical. As to conditions: read-out: Emax, 35S-GTP[γS] binding. Here is the method: as §3, §4
A general note: GTPγS is a poorly hydrolysed GTP analogue; its binding reports G protein activation.

The structures appear in SMILES notation.

The values below come from US9107954B2, “Bivalent ligands for the treatment of neurological disorders” (Virginia Commonwealth University, priority 2012, dated 2015).

T1 sequence (P51681 whole entry, the tested form may be a part): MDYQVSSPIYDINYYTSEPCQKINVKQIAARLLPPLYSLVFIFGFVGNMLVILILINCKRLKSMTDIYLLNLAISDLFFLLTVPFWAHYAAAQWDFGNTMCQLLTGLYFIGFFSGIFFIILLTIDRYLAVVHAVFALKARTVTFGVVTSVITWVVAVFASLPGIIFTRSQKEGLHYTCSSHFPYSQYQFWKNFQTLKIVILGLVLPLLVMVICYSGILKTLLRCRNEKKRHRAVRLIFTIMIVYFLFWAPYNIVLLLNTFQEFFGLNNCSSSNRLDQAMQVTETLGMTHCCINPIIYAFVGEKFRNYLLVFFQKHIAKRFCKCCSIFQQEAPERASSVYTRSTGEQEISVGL

With `Cc1nnc(C(C)C)n1C1CC2CCC(C1)N2CC[C@H](NC(=O)C1CCC(F)(F)CC1)c1ccc(NC(=O)COCC(=O)NCCCCCCCNC(=O)COCC(=O)N[C@@H]2CC[C@@]3(O)[C@H]4Cc5ccc(O)c6c5[C@@]3(CCN4CC3CC3)[C@H]2O6)cc1` (some centres unmarked) [bivalent ligand 1], the IC50 (usually the point on the concentration scale where inhibition reaches its midpoint) in [1] is 6240 ± 251 nM; in data set [3] (RANTES stimulated, read-out: Ca2+ inhibition IC50 ± SEM), 126 ± 28 nM; in data set [6] (DAMGO stimulated, hMOR-CHO Gqi5, read-out: Ca2+ inhibition IC50 ± SEM) it was 40 ± 4.8 nM; in data set [9] it was 30 ± 2.44 nM. In addition, the astrocyte viability result in [2] (100 nM, HIV-1 ± morphine, 24 h) is on record as “did not significantly affect the survival”. Besides, in data set [2] (Example 3), the “toxicity in the astrocytes, cytotoxicity assays (not shown)” value is recorded as “neither maraviroc nor 1 had any toxicity”. The “fold less potent than maraviroc in RANTES induced Ca2+ flux inhibition” value in data set [3] was “approximately 60 fold”. For the same compound, in [3] (data not shown), the CCR5 agonism entry is “no CCR5 agonism”. Also, in data set [4] (1 at 3000 nM, 2 at 10000 nM, maraviroc at 100 nM), the “effect on cell fusion” value is on record as “significantly lowered cell fusion”. Further, in [4] (morphine 300 nM), the “amplification of cell fusion inhibition when morphine present” value came to 2 fold. For the same compound, in [5], the “fold decrease in IL-6 release compared to R5 HIV-1 alone” value was 1.6 fold. In addition, in [6], the “fold reduction of potency to antagonize DAMGO-induced Ca2+ flux compared to naltrexone” value is reported as “less than 5 fold”. Also, the “agonism in Ca2+ mobilization assay” value in data set [6] (hMOR-CHO Gqi5, data not shown) is given as “No agonism”. Further, the Ki (in general, the dissociation constant of the complex between target and ligand, obtained from inhibition or displacement) in data set [7] came out at 51.8 ± 7.9 nM; in data set [10] it was 239 ± 56 nM. Further, the “viral entry by confocal microscopy” value in data set [8] is “abolished viral entry”. Further, the Emax (in general, the size of the effect at its maximum, as opposed to the concentration needed) in [11] turned out to be 11.7 ± 1.2%.
